Results as given in patent US10544150B2, “NK-3 receptor selective antagonist compounds, pharmaceutical composition and methods for use in NK-3 receptors mediated disorders” (Ogeda SA, priority 2010, dated 2020).

Molecular target: human NK-3 receptor (Homo sapiens (Human), UniProt P29371)
Assay: 3H-SB222200 binding competition assay with human NK-3 receptor
Details: 3H-SB222200 displacement, CHO cell membranes expressing human NK3 receptor; read-out: Ki range
Outline: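 Radioligand displacement: 5 nM tritiated SB222200 competed by varying compound concentrations on recombinant CHO membranes bearing human NK3, buffer pH 7.4 with HEPES, NaCl, CaCl2, MgCl2, BSA and saponin. Filter-bound radioactivity quantified; calculated Ki given as ranges from +++ (<500 nM) to # (>5 μM).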

Chain of human NK-3 receptor (P29371 whole entry): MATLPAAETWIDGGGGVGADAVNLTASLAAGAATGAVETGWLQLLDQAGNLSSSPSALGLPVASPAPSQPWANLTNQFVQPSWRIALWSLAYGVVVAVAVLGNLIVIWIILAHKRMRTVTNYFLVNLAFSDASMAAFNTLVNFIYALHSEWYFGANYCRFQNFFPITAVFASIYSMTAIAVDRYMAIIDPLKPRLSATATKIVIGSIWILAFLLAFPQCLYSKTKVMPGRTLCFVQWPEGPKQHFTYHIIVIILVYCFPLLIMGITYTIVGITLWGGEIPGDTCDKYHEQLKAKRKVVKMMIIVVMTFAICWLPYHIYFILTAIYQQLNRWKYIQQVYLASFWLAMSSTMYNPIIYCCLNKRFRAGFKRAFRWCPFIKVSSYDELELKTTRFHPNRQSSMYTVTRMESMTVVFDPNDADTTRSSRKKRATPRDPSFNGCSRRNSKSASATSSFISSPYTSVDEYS

SMILES | Ki
Cc1sccc1-c1ccc(C(=O)N2CCn3c(-c4csc(-c5ccc(F)cc5)n4)nnc3[C@@H]2C)cc1 [Compound 233, (S)-(3-(2-(4-fluorophenyl)thiazol-4-yl)-8-methyl-5,6-dihydro-[1,2,4]triazolo[4,3-a]pyrazin-7(8H)-yl)(4-(2-methylthiophen-3-yl)phenyl)methanone] | < 500 nM
Cc1sccc1-c1ccc(C(=O)N2CCn3c(-c4csc(-c5ccc(F)cc5)n4)nnc3[C@H]2C)cc1 [Compound 234, (R)-(3-(2-(4-fluorophenyl)thiazol-4-yl)-8-methyl-5,6-dihydro-[1,2,4]triazolo[4,3-a]pyrazin-7(8H)-yl)(4-(2-methylthiophen-3-yl)phenyl)methanone] | < 500 nM
O=C(c1ccc(-c2cccs2)cc1)N1CCn2c(nnc2-c2csc(-c3cnccn3)n2)C1 [Compound 235, (3-(2-(pyrazin-2-yl)thiazol-4-yl)-5,6-dihydro-[1,2,4]triazolo[4,3-a]pyrazin-7(8H)-yl)(4-(thiophen-2-yl)phenyl)methanone] | < 500 nM
N#Cc1ccc(-c2nc(-c3nnc4n3CCN(C(=O)c3ccc(-c5cccs5)cc3)C4)cs2)cc1 [Compound 236, 4-(4-(7-(4-(thiophen-2-yl)benzoyl)-5,6,7,8-tetrahydro-[1,2,4]triazolo[4,3-a]pyrazin-3-yl)thiazol-2-yl)benzonitrile] | < 500 nM
Cn1nc(-c2nnc3n2CCN(C(=O)c2ccc(F)cc2)C3)cc1-c1ccccc1 [Compound 238, (4-fluorophenyl)(3-(1-methyl-5-phenyl-1H-pyrazol-3-yl)-5,6-dihydro-[1,2,4]triazolo[4,3-a]pyrazin-7(8H)-yl)methanone] | < 500 nM
O=C(c1ccc(-c2cccs2)cc1)N1CCn2c(nnc2-c2csc(-c3ccc(N4CCOCC4)cc3)n2)C1 [Compound 239, (3-(2-(4-morpholinophenyl)thiazol-4-yl)-5,6-dihydro-[1,2,4]triazolo[4,3-a]pyrazin-7(8H)-yl)(4-(thiophen-2-yl)phenyl)methanone] | 1000 to 5000 nM
O=C(c1ccc(F)cc1)N1CCn2c(nnc2-c2csc(-c3ccc(N4CCOCC4)cc3)n2)C1 [Compound 240, (4-fluorophenyl)(3-(2-(4-morpholinophenyl)thiazol-4-yl)-5,6-dihydro-[1,2,4]triazolo[4,3-a]pyrazin-7(8H)-yl)methanone] | 500 to 1000 nM
CN1CCN(c2ccc(-c3nc(-c4nnc5n4CCN(C(=O)c4ccc(-c6cccs6)cc4)C5)cs3)cc2)CC1 [Compound 241, (3-(2-(4-(4-methylpiperazin-1-yl)phenyl)thiazol-4-yl)-5,6-dihydro-[1,2,4]triazolo[4,3-a]pyrazin-7(8H)-yl)(4-(thiophen-2-yl)phenyl)methanone] | < 500 nM
CN1CCN(c2ccc(-c3nc(-c4nnc5n4CCN(C(=O)c4ccc(F)cc4)C5)cs3)cc2)CC1 [Compound 242, (4-fluorophenyl)(3-(2-(4-(4-methylpiperazin-1-yl)phenyl)thiazol-4-yl)-5,6-dihydro-[1,2,4]triazolo[4,3-a]pyrazin-7(8H)-yl)methanone] | 500 to 1000 nM
O=C(c1ccc(F)cc1)N1CCn2c(nnc2-c2csc(-c3ccc(N4CCCCC4)cc3)n2)C1 [Compound 244, (4-fluorophenyl)(3-(2-(4-(piperidin-1-yl)phenyl)thiazol-4-yl)-5,6-dihydro-[1,2,4]triazolo[4,3-a]pyrazin-7(8H)-yl)methanone] | 500 to 1000 nM
O=C(c1ccc(-c2cccs2)cc1)N1CCn2c(nnc2-c2csc(-c3ccc(N4CCCC4)cc3)n2)C1 [Compound 245, (3-(2-(4-(pyrrolidin-1-yl)phenyl)thiazol-4-yl)-5,6-dihydro-[1,2,4]triazolo[4,3-a]pyrazin-7(8H)-yl)(4-(thiophen-2-yl)phenyl)methanone] | < 500 nM
O=C(c1ccc(F)cc1)N1CCn2c(nnc2-c2csc(-c3ccc(N4CCCC4)cc3)n2)C1 [Compound 246, (4-fluorophenyl)(3-(2-(4-(pyrrolidin-1-yl)phenyl)thiazol-4-yl)-5,6-dihydro-[1,2,4]triazolo[4,3-a]pyrazin-7(8H)-yl)methanone] | < 500 nM
O=C(c1ccc(-c2cccs2)cc1)N1CCn2c(nnc2-c2csc(N3CCCCC3)n2)C1 [Compound 247, (3-(2-(piperidin-1-yl)thiazol-4-yl)-5,6-dihydro-[1,2,4]triazolo[4,3-a]pyrazin-7(8H)-yl)(4-(thiophen-2-yl)phenyl)methanone] | < 500 nM
O=C(c1ccc(-c2cccs2)cc1)N1CCn2c(nnc2-c2csc(N3CCCC3)n2)C1 [Compound 248, (3-(2-(pyrrolidin-1-yl)thiazol-4-yl)-5,6-dihydro-[1,2,4]triazolo[4,3-a]pyrazin-7(8H)-yl)(4-(thiophen-2-yl)phenyl)methanone] | < 500 nM
O=C(c1ccc(F)cc1)N1CCn2c(nnc2-c2csc(N3CCCC3)n2)C1 [Compound 249, (4-fluorophenyl)(3-(2-(pyrrolidin-1-yl)thiazol-4-yl)-5,6-dihydro-[1,2,4]triazolo[4,3-a]pyrazin-7(8H)-yl)methanone] | < 500 nM
CN1CCN(c2nc(-c3nnc4n3CCN(C(=O)c3ccc(-c5cccs5)cc3)C4)cs2)CC1 [Compound 250, (3-(2-(4-methylpiperazin-1-yl)thiazol-4-yl)-5,6-dihydro-[1,2,4]triazolo[4,3-a]pyrazin-7(8H)-yl)(4-(thiophen-2-yl)phenyl)methanone] | 500 to 1000 nM
Cn1cc(-c2nnc3n2CCN(C(=O)c2ccc(-c4cccs4)cc2)C3)nc1-c1ccccc1 [Compound 252, (3-(1-methyl-2-phenyl-1H-imidazol-4-yl)-5,6-dihydro-[1,2,4]triazolo[4,3-a]pyrazin-7(8H)-yl)(4-(thiophen-2-yl)phenyl)methanone] | 500 to 1000 nM
CN(C)c1ccc(C(=O)N2CCn3c(nnc3-c3csc(-c4ccc(F)cc4)n3)C2)cc1 [Compound 253, (4-(dimethylamino)phenyl)(3-(2-(4-fluorophenyl)thiazol-4-yl)-5,6-dihydro-[1,2,4]triazolo[4,3-a]pyrazin-7(8H)-yl)methanone] | 500 to 1000 nM
COCCn1nc(-c2ccccc2)cc1-c1nnc2n1CCN(C(=O)c1ccc(-c3cccs3)cc1)C2 [Compound 254, (3-(1-(2-methoxyethyl)-3-phenyl-1H-pyrazol-5-yl)-5,6-dihydro-[1,2,4]triazolo[4,3-a]pyrazin-7(8H)-yl)(4-(thiophen-2-yl)phenyl)methanone] | < 500 nM
COCCn1nc(-c2ccccc2)cc1-c1nnc2n1CCN(C(=O)c1ccc(F)cc1)C2 [Compound 255, (4-fluorophenyl)(3-(1-(2-methoxyethyl)-3-phenyl-1H-pyrazol-5-yl)-5,6-dihydro-[1,2,4]triazolo[4,3-a]pyrazin-7(8H)-yl)methanone] | 500 to 1000 nM
CC(C)Cc1nc(-c2nnc3n2CCN(C(=O)c2ccc(-c4cccs4)cc2)C3)cs1 [Compound 256, (3-(2-isobutylthiazol-4-yl)-5,6-dihydro-[1,2,4]triazolo[4,3-a]pyrazin-7(8H)-yl)(4-(thiophen-2-yl)phenyl)methanone] | < 500 nM
COCCC1CN(c2nc(-c3nnc4n3CCN(C(=O)c3ccc(-c5cccs5)cc3)C4)cs2)CCO1 (stereo not drawn) [Compound 257, (3-(2-(2-(2-methoxyethyl)morpholino)thiazol-4-yl)-5,6-dihydro-[1,2,4]triazolo[4,3-a]pyrazin-7(8H)-yl)(4-(thiophen-2-yl)phenyl)methanone] | < 500 nM
O=C(c1ccc(F)cc1)N1CCn2c(nnc2-c2csc(N3CCC(F)(F)CC3)n2)C1 [Compound 258, (3-(2-(4,4-difluoropiperidin-1-yl)thiazol-4-yl)-5,6-dihydro-[1,2,4]triazolo[4,3-a]pyrazin-7(8H)-yl)(4-fluorophenyl)methanone] | < 500 nM
CC(C)Cc1nc(-c2nnc3n2CCN(C(=O)c2ccc(F)cc2)C3)cs1 [Compound 259, (4-fluorophenyl)(3-(2-isobutylthiazol-4-yl)-5,6-dihydro-[1,2,4]triazolo[4,3-a]pyrazin-7(8H)-yl)methanone] | 1000 to 5000 nM
O=C(c1ccc(F)cc1)N1CCn2c(cnc2-c2csc(-c3ccc(F)cc3)n2)C1 [Compound 260, (4-fluorophenyl)(3-(2-(4-fluorophenyl)thiazol-4-yl)-5,6-dihydroimidazo[1,5-a]pyrazin-7(8H)-yl)methanone] | < 500 nM
CC1CN(c2nc(-c3nnc4n3CCN(C(=O)c3ccc(-c5cccs5)cc3)C4)cs2)C(C)CO1 (stereo not drawn) [Compound 261, (3-(2-(2,5-dimethylmorpholino)thiazol-4-yl)-5,6-dihydro-[1,2,4]triazolo[4,3-a]pyrazin-7(8H)-yl)(4-(thiophen-2-yl)phenyl)methanone] | < 500 nM
O=C(c1ccc(-c2cccs2)cc1)N1CCn2c(nnc2-c2csc(-c3ccccc3O)n2)C1 [Compound 262, (3-(2-(2-hydroxyphenyl)thiazol-4-yl)-5,6-dihydro-[1,2,4]triazolo[4,3-a]pyrazin-7(8H)-yl)(4-(thiophen-2-yl)phenyl)methanone] | < 500 nM
O=C(c1ccc(-c2cccs2)cc1)N1CCn2c(nnc2-c2csc(N3CCC(F)(F)CC3)n2)C1 [Compound 263, (3-(2-(4,4-difluoropiperidin-1-yl)thiazol-4-yl)-5,6-dihydro-[1,2,4]triazolo[4,3-a]pyrazin-7(8H)-yl)(4-(thiophen-2-yl)phenyl)methanone] | < 500 nM
CC1CN(c2nc(-c3nnc4n3CCN(C(=O)c3ccc(-c5cccs5)cc3)C4)cs2)CC(C)O1 (stereo not drawn) [Compound 265, (3-(2-(2,6-dimethylmorpholino)thiazol-4-yl)-5,6-dihydro-[1,2,4]triazolo[4,3-a]pyrazin-7(8H)-yl)(4-(thiophen-2-yl)phenyl)methanone] | < 500 nM
CC1(C)CN(c2nc(-c3nnc4n3CCN(C(=O)c3ccc(-c5cccs5)cc3)C4)cs2)CCO1 [Compound 266, (3-(2-(2,2-dimethylmorpholino)thiazol-4-yl)-5,6-dihydro-[1,2,4]triazolo[4,3-a]pyrazin-7(8H)-yl)(4-(thiophen-2-yl)phenyl)methanone] | < 500 nM
